Assay results as given in paper PMC2362731, “Phase I study of Carzelesin (U-80,244) given (4-weekly) by intravenous bolus schedule” (British Journal of Cancer, 1999).

Legend:
[1] = tested on: granulocytes (ANC), white blood cells (WBC), platelets; test: Pharmacokinetic-pharmacodynamic relationship of bone marrow toxicity (%decr vs AUC); format: in vivo
Excerpt: Carzelesin (U-80,244, Figure 1A) is a cyclopropylpyrroloindole (CPI) prodrug analogue of CC-1065. […] CPI drugs are a class of compounds with unique DNA interactive properties. These agents fit into the minor groove region of DNA, and the CPI function in the molecule mediates a covalent binding to the N3 position of adenine in A-T rich regions, thus forming DNA adducts in a sequence selective fashion (Hurley et al, 1984; Reynolds et al, 1985). Three new CPIs have now been developed. […] Bizelesin differs from the classical CPI drugs in that it contains two chloromethyl functions, which are both converted (via intramolecular rearrangements) to the CPI alkyl- ating species that interact with DNA. Consequently, this agent is capable of forming DNA interstrand cross-links (Lee et al, 1991). […] Therefore, efforts were directed to modu- late the alkylation rate by the preparation of CPI prodrugs that would require chemical or enzymatic conversion. The activation of Carzelesin is a two-step reaction with hydrolysis of the phenyl- urethane substituent to form the intermediate compound U-76,073, followed by ring closure to form the active product U-76,074 (Figure 1B). […] This higher efficacy may be related to the pharmacologic features of the compound. […] Phase I study of Carzelesin (U-80,244) given (4-weekly) by intravenous bolus schedule A Awada1, CJA Punt2, MJ Piccart1, O Van Tellingen3, L Van Manen2, J Kerger1, Y Groot4, J Wanders4, J Verweij5 and DJTh Wagener2 1Institut Jules Bordet, Bd de Waterloo 125, 1000 Brussels, Belgium; 2University Hospital, Geert Grooteplein 8, Box 9101, 6500 HB Nijmegen, The Netherlands; 3The Netherlands Cancer Institute (Antoni van Leeuwenhoek Huis), Plesmanlaan 121, 1066 CX Amsterdam, The Netherlands; 4European Organization for Research and Treatment of Cancer - New Drug Development Office, PO Box 7057, Amsterdam, The Netherlands; 5Rotterdam Cancer Institute, Groene Hilledijk 301, 3075 EA Rotterdam, The Netherlands; on behalf of the EORTC Early Clinical Studies Group and EORTC NDDO Summary Carzelesin is a cyclopropylpyrroloindole analogue which acts as a DNA-sequence-specific alkylating agent. In this phase I study, Carzelesin was given as a 4-weekly 10 min IV infusion to 51 patients with advanced solid tumours. Patients received a median of two courses (range 1-5) at one of nine dose levels: […]. According to NCI-CTC criteria, non- haematological toxicities (grade 1/2) included fever, nausea and vomiting, mucositis and anorexia, none of which was clearly dose related. […] The concentration of U-76,074 (active metabolite) extended above the lower limit of quantitation (1 ng ml-1) for short periods of time and only at the higher dose levels. […]

[2] = Ex vivo conversion in blood samples; format: in vitro ADME, human; conditions: if the sample is not immediately cooled in ice-water
Excerpt: Carzelesin (U-80,244, Figure 1A) is a cyclopropylpyrroloindole (CPI) prodrug analogue of CC-1065. […] CPI drugs are a class of compounds with unique DNA interactive properties. These agents fit into the minor groove region of DNA, and the CPI function in the molecule mediates a covalent binding to the N3 position of adenine in A-T rich regions, thus forming DNA adducts in a sequence selective fashion (Hurley et al, 1984; Reynolds et al, 1985). Three new CPIs have now been developed. […] Bizelesin differs from the classical CPI drugs in that it contains two chloromethyl functions, which are both converted (via intramolecular rearrangements) to the CPI alkyl- ating species that interact with DNA. Consequently, this agent is capable of forming DNA interstrand cross-links (Lee et al, 1991). […] Therefore, efforts were directed to modu- late the alkylation rate by the preparation of CPI prodrugs that would require chemical or enzymatic conversion. The activation of Carzelesin is a two-step reaction with hydrolysis of the phenyl- urethane substituent to form the intermediate compound U-76,073, followed by ring closure to form the active product U-76,074 (Figure 1B). […] The concentration of U-76,074 (active metabolite) extended above the lower limit of quantitation (1 ng ml-1) for short periods of time and only at the higher dose levels. […]

CCN(CC)c1ccc2cc(C(=O)Nc3ccc4[nH]c(C(=O)N5C[C@@H](CCl)c6c5cc(OC(=O)Nc5ccccc5)c5[nH]cc(C)c65)cc4c3)oc2c1 [Carzelesin]
AUC in other patients with marked toxicity ([1]; human, in vivo): less than 20 ng ml.h-1 | highest AUC observed in this series ([1]; patient at 300 with only very modest toxicity): 43.2 ng·mL/h | %decr in ANC ([1]; second course, exception patient treated at 300): 82% | stability in blood sample ex vivo [2]: readily converted to U-76,074 ex vivo
